Results from patent US10940139B2, “Compounds that interact with the Ras superfamily for the treatment of cancers, inflammatory diseases, rasopathies, and fibrotic disease” (Shy Therapeutics LLC, priority 2017, dated 2021).
Where two headings read alike, the source gives them in different places.

Assays:
Test in all cases: Ras GTP binding domain inhibition assay (labeled GTP)
Settings in all cases: 20 μM compound
KRas G12C mutant = KRas G12C mutant (Homo sapiens (Human), UniProt P01116, G12C)
How it was run: (§1)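 Fluorescence read-out of Cy3-/Cy5-GTP remaining bound to nickel-immobilized His-KRas after washes. Protein was coated overnight at 4° C, then exposed to compound for 3 h at room temperature before a 45 min labeled-GTP incubation.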

[1] = target: KRas G12D/Q61H double mutant (Homo sapiens (Human), UniProt P01116, G12D/Q61H)
How it was run: as §1

KRas Q61H mutant = KRas Q61H mutant (Homo sapiens (Human), UniProt P01116, Q61H)
How it was run: as §1

KRas wild type = KRas wild type (Homo sapiens (Human), UniProt P01116)
How it was run: as §1

[2] = target: KRas G12C/Q61H double mutant (Homo sapiens (Human), UniProt P01116, G12C/Q61H)
How it was run: as §1

KRas G12D mutant protein = KRas G12D mutant protein (Homo sapiens (Human), UniProt P01116, G12D)
[3] = KRas G12C, read-out: % Inhibition at 20 μM of K-Ras mutant and wild-type protein, KRas G12C
[4] = KRas G12D/Q61H double mutant, read-out: % Inhibition at 20 μM of K-Ras mutant and wild-type protein, KRas G12D Q61H
[5] = KRas Q61H, read-out: % Inhibition at 20 μM of K-Ras mutant and wild-type protein, KRas Q61H
[6] = KRas wild type, read-out: % Inhibition at 20 μM of K-Ras mutant and wild-type protein, KRas wild type
[7] = KRas G12C/Q61H double mutant, read-out: % Inhibition at 20 μM of K-Ras mutant and wild-type protein, KRas G12C Q61H
[8] = KRas G12D, read-out: % Inhibition at 20 μM of K-Ras mutant and wild-type protein, KRas G12D

KRas Q61H mutant, sequence (P01116-2 other isoform, or with tags, fused parts or gaps Q61H): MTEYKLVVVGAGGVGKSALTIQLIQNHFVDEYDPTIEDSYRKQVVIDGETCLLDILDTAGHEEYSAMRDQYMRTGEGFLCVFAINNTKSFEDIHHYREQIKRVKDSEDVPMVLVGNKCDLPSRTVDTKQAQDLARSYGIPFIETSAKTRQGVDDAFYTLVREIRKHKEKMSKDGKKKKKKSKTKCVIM
KRas G12C mutant, sequence (P01116-2 other isoform, or with tags, fused parts or gaps G12C): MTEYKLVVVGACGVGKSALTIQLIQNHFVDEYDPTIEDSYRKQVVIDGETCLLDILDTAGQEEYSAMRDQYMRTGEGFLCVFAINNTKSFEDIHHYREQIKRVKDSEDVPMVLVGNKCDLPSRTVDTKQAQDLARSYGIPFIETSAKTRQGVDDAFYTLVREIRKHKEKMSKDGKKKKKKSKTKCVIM
KRas wild type, sequence (P01116-2 other isoform, or with tags, fused parts or gaps): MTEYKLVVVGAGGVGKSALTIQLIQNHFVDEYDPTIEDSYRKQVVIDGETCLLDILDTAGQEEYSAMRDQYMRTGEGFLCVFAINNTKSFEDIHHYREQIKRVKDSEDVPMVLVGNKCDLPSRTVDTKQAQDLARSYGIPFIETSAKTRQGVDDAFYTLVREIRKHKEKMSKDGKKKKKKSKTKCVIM
KRas G12D/Q61H double mutant, sequence (P01116-2 other isoform, or with tags, fused parts or gaps G12D/Q61H): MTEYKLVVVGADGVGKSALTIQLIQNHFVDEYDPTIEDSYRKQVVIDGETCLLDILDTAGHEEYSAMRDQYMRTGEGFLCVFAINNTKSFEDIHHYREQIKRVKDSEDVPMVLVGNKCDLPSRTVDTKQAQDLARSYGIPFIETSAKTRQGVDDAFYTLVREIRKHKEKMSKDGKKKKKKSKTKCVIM
KRas G12D mutant protein, sequence (P01116-2 other isoform, or with tags, fused parts or gaps G12D): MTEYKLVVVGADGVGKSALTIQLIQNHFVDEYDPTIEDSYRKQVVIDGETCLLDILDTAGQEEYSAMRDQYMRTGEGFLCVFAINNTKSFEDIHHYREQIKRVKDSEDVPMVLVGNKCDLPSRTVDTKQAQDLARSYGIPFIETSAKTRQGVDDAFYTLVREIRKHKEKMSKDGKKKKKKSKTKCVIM
KRas G12C/Q61H double mutant, sequence (P01116-2 other isoform, or with tags, fused parts or gaps G12C/Q61H): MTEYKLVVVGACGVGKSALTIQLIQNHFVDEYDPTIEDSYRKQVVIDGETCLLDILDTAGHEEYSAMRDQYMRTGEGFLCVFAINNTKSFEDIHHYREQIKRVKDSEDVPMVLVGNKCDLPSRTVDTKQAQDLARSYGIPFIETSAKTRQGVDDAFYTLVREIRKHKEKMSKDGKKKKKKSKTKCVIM

SMILES	inhibition at 20 µM (KRas G12C mutant; [3]) [%]	inhibition at 20 µM [1, 4] [%]	inhibition at 20 µM (KRas Q61H mutant; [5]) [%]	inhibition at 20 µM (KRas wild type; [6]) [%]	inhibition at 20 µM [2, 7] [%]	inhibition at 20 µM (KRas G12D mutant protein; [8]) [%]	further results
Cc1sc2c(O)nc(-c3ccccn3)nc2c1-c1ccccc1 [drawing 2905]							inhibition at 20 µM (KRas G12C mutant; read-out: % Inhibition at 20 μM KRas G12C): 25 to 50%; inhibition at 20 µM ([1]; read-out: % Inhibition at 20 μM KRas G12D Q61H): 51 to 75%; inhibition at 20 µM (KRas Q61H mutant; read-out: % Inhibition at 20 μM KRas Q61H): 25 to 50%; inhibition at 20 µM (KRas wild type; read-out: % Inhibition at 20 μM KRas wild type): 1 to 25%; inhibition at 20 µM ([2]; read-out: % Inhibition at 20 μM KRas G12C Q61H): 25 to 50%; inhibition at 20 µM (KRas G12D mutant protein; read-out: % Inhibition at 20 μM KRas G12D): 51 to 75%
Cc1sc2c(O)nc(-c3ccccn3)nc2c1-c1cccnc1 [drawing 3468]	25 to 50	25 to 50	51 to 75	25 to 50	51 to 75	51 to 75	
COc1cnc(-c2ccccn2)nc1O [drawing 3469]	76 to 100	51 to 75	51 to 75	25 to 50	76 to 100	51 to 75	
COc1nc(-c2ccccn2)nc2c(C3CCCC3)csc12 [drawing 3470]	25 to 50	51 to 75	76 to 100	25 to 50	51 to 75	25 to 50	
CCC(C)c1csc2c(OC)nc(-c3ccccn3)nc12 (stereo not drawn) [drawing 3471]	25 to 50	51 to 75	51 to 75	25 to 50	51 to 75	25 to 50	
Cc1c(C(=O)O)sc2c(O)nc(-c3ccccn3)nc12 [drawing 3475]	1 to 25	51 to 75	51 to 75	1 to 25	51 to 75	25 to 50	
Oc1nc(-c2ccccn2)nc2c(C3CCC3)csc12 [drawing 3478]	25 to 50	51 to 75	51 to 75	25 to 50	51 to 75	51 to 75	
COc1nc(-c2ccccn2)nc2c(C3CCC3)csc12 [drawing 3480]	25 to 50	51 to 75	76 to 100	1 to 25	51 to 75	1 to 25	
CC(C)Oc1cnc(-c2ccccn2)nc1O [drawing 3481]	51 to 75	51 to 75	51 to 75	25 to 50	76 to 100	51 to 75	
CC(C)c1csc2c(O)nc(-c3ccccn3)nc12 [drawing 3487]	51 to 75	51 to 75	51 to 75	51 to 75	51 to 75	51 to 75	
CN(C)CCOc1cccc(-c2csc3c(O)nc(-c4ccccn4)nc23)c1 [drawing 3492]	51 to 75	76 to 100	76 to 100	51 to 75	76 to 100	76 to 100	
COc1ccc(CCC(=O)Nc2nc(-c3ccccn3)nc3sccc23)cn1 [drawing 3493]	25 to 50	51 to 75	76 to 100	25 to 50	51 to 75	51 to 75	
CC(C)Cc1csc2c(O)nc(-c3ccccn3)nc12 [drawing 3494]	25 to 50	51 to 75	76 to 100	25 to 50	51 to 75	51 to 75	
Oc1nc(-c2ccccn2)nc2c(C3CCCC3)csc12 [drawing 3495]	25 to 50	51 to 75	51 to 75	25 to 50	51 to 75	51 to 75	
COc1cnc(-c2cn(C)cn2)nc1O [drawing 3496]	51 to 75	51 to 75	76 to 100	25 to 50	51 to 75	51 to 75	
Cc1sc2c(O)nc(-c3ccccn3)nc2c1-c1ccncc1 [drawing 3497]	25 to 50	51 to 75	51 to 75	1 to 25	25 to 50	51 to 75	
Oc1cccc(-c2csc3c(O)nc(-c4ccccn4)nc23)n1 [drawing 3498]	25 to 50	51 to 75	76 to 100	51 to 75	51 to 75	25 to 50	
Oc1nc(-c2ccccn2)nc2c(-c3cc(CN4CCCC4)ccc3F)csc12 [drawing 3502]	51 to 75	51 to 75	76 to 100	25 to 50	51 to 75	76 to 100	
Cc1nn(C(C)C)cc1-c1csc2c(O)nc(-c3ccccn3)nc12 [drawing 3506]	25 to 50	51 to 75	51 to 75	25 to 50	51 to 75	51 to 75	
Cc1sc2c(O)nc(-c3ccccn3)nc2c1C(=O)N1CCN(c2ccccc2)CC1C (stereo not drawn) [drawing 3509]	51 to 75	51 to 75	51 to 75	25 to 50	51 to 75	51 to 75	
Cc1sc2c(O)nc(-c3ccccn3)nc2c1C(=O)N1CCN(Cc2cccc(O)c2)CC1 [drawing 3510]	1 to 25	51 to 75	51 to 75	1 to 25	51 to 75	25 to 50	
COc1cnc(-c2cn(C)cn2)nc1O [drawing 3512]							% Inhibition at 20 μM of K-Ras mutant and wild-type protein, KRas G12C (KRas G12C mutant; KRas G12C): C (51-75% inhibition); % Inhibition at 20 μM of K-Ras mutant and wild-type protein, KRas G12D Q61H ([1]; KRas G12D/Q61H double mutant): C (51-75% inhibition); % Inhibition at 20 μM of K-Ras mutant and wild-type protein, KRas Q61H (KRas Q61H mutant; KRas Q61H): D (76-100% inhibition); % Inhibition at 20 μM of K-Ras mutant and wild-type protein, KRas wild type (KRas wild type; KRas wild type): B (25-50% inhibition); % Inhibition at 20 μM of K-Ras mutant and wild-type protein, KRas G12C Q61H ([2]; KRas G12C/Q61H double mutant): C (51-75% inhibition); % Inhibition at 20 μM of K-Ras mutant and wild-type protein, KRas G12D (KRas G12D mutant protein; KRas G12D): C (51-75% inhibition)
COc1cnc(-c2nccn2C)nc1O [drawing 3513]	51 to 75	76 to 100	76 to 100	51 to 75	76 to 100	76 to 100	
Nc1cccc(-c2csc3c(O)nc(-c4ccccn4)nc23)n1 [drawing 3514]	25 to 50	51 to 75	76 to 100	51 to 75	51 to 75	51 to 75	
Cc1sc2c(O)nc(-c3ccccn3)nc2c1-c1ccccc1Cl [drawing 3515]	1 to 25	51 to 75	76 to 100	1 to 25	51 to 75	51 to 75	
COc1cnc(-c2cnc[nH]2)nc1O [drawing 3516]	51 to 75	51 to 75	51 to 75	51 to 75	51 to 75	51 to 75	
Oc1nc(-c2ccccn2)nc2c(C3CC3)csc12 [drawing 3518]	25 to 50	25 to 50	25 to 50	25 to 50	1 to 25	51 to 75	
Oc1nc(-c2ccccn2)nc2c(CC3CCNC3)csc12 (stereo not drawn) [drawing 3526]	51 to 75	51 to 75	51 to 75	25 to 50	51 to 75	51 to 75	
O=c1[nH]c(-c2ccccn2)nc2c([C@@H]3O[C@H](CO)[C@@H](O)[C@H]3O)csc12 [drawing 3527]	51 to 75	25 to 50	51 to 75	25 to 50	25 to 50	25 to 50	
COCCNc1nc(-c2cn(C)cn2)nc2sc(-c3ccncc3)c(-c3ccccc3)c12 [drawing 3530]	51 to 75	76 to 100	76 to 100	51 to 75	51 to 75	51 to 75	
